{"source": "ChEMBL document CHEMBL1155148", "about": "(Antimicrob Agents Chemother, 2007)", "key": {"[1]": {"assay": "Plasma concentration in human with MDR1 3435 CC genotype at 400 mg, po once daily after 4 days", "type": "ADME, organism-based"}, "[2]": {"assay": "Tmax in human with MDR1 3435 CC genotype at 400 mg, po once daily after 14 days coadministered with rifampin at 600 […], po once daily", "type": "ADME, organism-based", "design": "route oral", "conditions": "in vivo"}, "[3]": {"assay": "AUC (0 to 24 hrs) in human with MDR1 3435 CC genotype at 400 mg, po once daily after 14 days coadministered with rifampin at 600 […], po once daily", "type": "ADME, organism-based", "design": "time < 24 hr, route oral", "conditions": "plasma"}, "[4]": {"assay": "AUC (0 to 24 hrs) in human with MDR1 3435 CC genotype at 400 mg, po once daily after 4 days", "type": "ADME, organism-based", "design": "dose 400 mg, time < 24 hr, route oral", "conditions": "plasma"}, "[5]": {"assay": "Tmax in human with MDR1 3435 CC or CT genotype at 400 mg, po once daily after 14 days coadministered with rifampin at 600 […], po once daily", "type": "ADME, organism-based", "design": "route oral", "conditions": "in vivo"}, "[6]": {"assay": "Plasma concentration in human with MDR1 3435 CC or CT genotype at 400 mg, po once daily after 4 days", "type": "ADME, organism-based"}, "[7]": {"assay": "Tmax in human at 400 mg, po once daily after 14 days coadministered with rifampin at 600 mg, po once daily", "type": "ADME, organism-based", "conditions": "in vivo"}, "[8]": {"assay": "AUC (0 to 24 hrs) in human at 400 mg, po once daily after 14 days coadministered with rifampin at 600 mg, po once daily", "type": "ADME, organism-based", "design": "dose 400 mg, time < 24 hr, route oral", "conditions": "plasma"}, "[9]": {"assay": "Plasma concentration in human at 400 mg, po once daily after 4 days", "type": "ADME, organism-based"}, "[10]": {"assay": "Plasma concentration in human with MDR1 3435 CC or CT genotype at 400 mg, po once daily after 14 days coadministered with rifampin at 600 […], po once daily", "type": "ADME, organism-based", "design": "route oral"}, "[11]": {"assay": "Tmax in human with MDR1 3435 CC or CT genotype at 400 mg, po once daily after 4 days", "type": "ADME, organism-based", "conditions": "in vivo"}, "[12]": {"assay": "Plasma concentration in human at 400 mg, po once daily after 14 days coadministered with rifampin at 600 mg, po once daily", "type": "ADME, organism-based"}, "[13]": {"assay": "AUC (0 to 24 hrs) in human at 400 mg, po once daily after 4 days", "type": "ADME, organism-based", "design": "dose 400 mg, time < 24 hr, route oral", "conditions": "plasma"}, "[14]": {"assay": "AUC (0 to 24 hrs) in human with MDR1 3435 CT or TT genotype at 400 mg, po once daily after 14 days coadministered with rifampin at 600 mg, po once daily", "conditions": "plasma"}, "[15]": {"assay": "Plasma concentration in human with MDR1 3435 CC genotype at 400 mg, po once daily after 14 days coadministered with rifampin at 600 […], po once daily", "type": "ADME, organism-based", "design": "route oral"}, "[16]": {"assay": "Tmax in human at 400 mg, po once daily after 4 days", "type": "ADME, organism-based", "conditions": "in vivo"}, "[17]": {"assay": "AUC (0 to 24 hrs) in human with MDR1 3435 CC or CT genotype at 400 mg, po once daily after 4 days", "type": "ADME, organism-based", "design": "dose 400 mg, time < 24 hr, route oral", "conditions": "plasma"}, "[18]": {"assay": "Tmax in human with MDR1 3435 CC genotype at 400 mg, po once daily after 4 days", "type": "ADME, organism-based", "conditions": "in vivo"}, "[19]": {"assay": "AUC (0 to 24 hrs) in human at 600 mg, po once daily after 14 days coadministered with moxifloxacin at 400 mg, po once daily", "type": "ADME, organism-based", "design": "dose 600 mg, time < 24 hr, route oral", "conditions": "plasma"}, "[20]": {"assay": "Plasma concentration in human at 600 mg, po once daily after 14 days coadministered with moxifloxacin at 400 mg, po once daily", "type": "ADME, organism-based"}}, "data": [{"smiles": "COc1c(N2C[C@@H]3CCCN[C@@H]3C2)c(F)cc2c(=O)c(C(=O)O)cn(C3CC3)c12", "note": "[MOXIFLOXACIN]", "values": [{"measurement": "concentration at 96 h", "setting": "[1]", "result": 3530, "unit": "ng/mL"}, {"measurement": "Tmax", "setting": "[2]", "result": 1.98, "unit": "h"}, {"measurement": "AUC at 24 h", "setting": "[3]", "result": 25500, "unit": "ng·h/mL"}, {"measurement": "AUC at 24 h", "setting": "[4]", "result": 37200, "unit": "ng·h/mL"}, {"measurement": "Tmax", "setting": "[5]", "result": 1.05, "unit": "h"}, {"measurement": "concentration at 96 h", "setting": "[6]", "result": 3810, "unit": "ng/mL"}, {"measurement": "Tmax", "setting": "[7]", "result": 1.56, "unit": "h"}, {"measurement": "AUC at 24 h", "setting": "[8]", "result": 29200, "unit": "ng·h/mL"}, {"measurement": "concentration at 96 h", "setting": "[9]", "result": 3800, "unit": "ng/mL"}, {"measurement": "concentration at 336 h", "setting": "[10]", "result": 3830, "unit": "ng/mL"}, {"measurement": "Tmax", "setting": "[11]", "result": 1.91, "unit": "h"}, {"measurement": "concentration at 336 h", "setting": "[12]", "result": 3600, "unit": "ng/mL"}, {"measurement": "AUC at 24 h", "setting": "[13]", "result": 39400, "unit": "ng·h/mL"}, {"measurement": "AUC at 24 h", "setting": "[14]", "result": 30300, "unit": "ng·h/mL"}, {"measurement": "concentration at 336 h", "setting": "[15]", "result": 2940, "unit": "ng/mL"}, {"measurement": "Tmax", "setting": "[16]", "result": 1.97, "unit": "h"}, {"measurement": "AUC at 24 h", "setting": "[17]", "result": 39700, "unit": "ng·h/mL"}, {"measurement": "Tmax", "setting": "[18]", "result": 1.47, "unit": "h"}]}, {"smiles": "CO[C@H]1/C=C/O[C@@]2(C)Oc3c(C)c(O)c4c(O)c(c(/C=N/N5CCN(C)CC5)c(O)c4c3C2=O)NC(=O)/C(C)=C\\C=C\\[C@H](C)[C@H](O)[C@@H](C)[C@@H](O)[C@@H](C)[C@H](OC(C)=O)[C@@H]1C", "note": "[RIFAMPIN]", "values": [{"measurement": "AUC at 24 h", "setting": "[19]", "result": 44000, "unit": "ng·h/mL"}, {"measurement": "concentration at 336 h", "setting": "[20]", "result": 9900, "unit": "ng/mL"}]}]}
